This note sets out measurements from publication PMC11494503, “Next Generation SICLOPPS Screening for the Identification of Inhibitors of the HIF-1α/HIF-1β Protein–Protein Interaction” (ACS Chemical Biology, 2024).

Peptide text beside a SMILES is read from it.

The test system of assay [1] is HIF-1α/HIF-1β PPI. Put plainly: SICLOPPS CX5 library screen in HIF-1 RTHS with biopanning and NGS. It counts as cell-based, E. coli. Conditions: after 2 rounds of biopanning. From the text:
The HIF-1 RTHS links the PPI between HIF-1α-P22 and HIF-1β-434 fusion proteins to the life/death of the host E. coli via three reporter genes.[14] Interaction of HIF-1α and HIF-1β results in the formation of a chimeric P22/434 repressor that inhibits the transcription of the KanR and His3 reporter genes, which are required for cell survival in selection media (Figure S1). Disruption of the HIF-1α/HIF-1β PPI also disrupts the repressor complex, leading to transcription of the reporter genes and survival of colonies that contain cyclic peptide HIF-1 inhibitors. Thus, cells containing cyclic peptide inhibitors of the targeted PPI will survive and grow on selective media, whereas all others will not. The HIF-1 RTHS cells were transformed with the sequenced CX5 library and, after recovery, plated onto a selective medium. After incubation for 48 h at 37 °C, selection plates were scraped to collect all colonies, and the SICLOPPS plasmids were isolated. The extein coding region of these plasmids was subsequently sequenced by NGS. We observed sequence enrichment after one round of biopanning, with the three sequences (CAAAAA, CRLYVL, and CVTYVL) making up 7.8% of the entire library with over 10 000 copies each per 1 M reads (Figure 2a). The prevalence of the control sequence was reduced by 44% from 80 000 to 45 000 copies per million reads, which further indicated enrichment of cyclic peptide inhibitors of the HIF-1α/HIF-1β PPI in the RTHS. The next 47 sequences were present with over 1000 copies after round 1 which made up a further 15% of the library (Figure 2a). HIF-1 RTHS cells were transformed with the SICLOPPS plasmid library isolated from round 1 of biopanning, for a second round of selection. After incubation, all colonies were scraped, and plasmids were isolated and sequenced by NGS as before. We observed further sequence enrichment after the second round of biopanning, evident by the shift of the library population from the mostly low-prevalence sequences in both the naïve library and after one round of biopanning to mostly highly prevalent cyclic peptide sequences after round 2 of biopanning (Figure 2b). With 159 000 copies per 1 M reads, the most prevalent sequence is CRTYIL, while the next 14 sequences were all present with more than 10 000 copies per 1 M. The top 15 sequences make up over 50% of the entire library. The CA5 internal standard dropped to 0.5%, providing further evidence of enrichment of active inhibitors during biopanning.
All reagents were purchased from Fisher Scientific or Sigma Aldrich UK unless specified otherwise.
Restriction enzymes and microbiology reagents were purchased from New England Biolabs Inc., FisherScientific (UK) or Promega (UK) and were used as directed by the manufacturer. Primers and oligonucleotides were synthesised by Integrated DNA Technologies (UK). DNA sequencing was carried out by Eurofins MWG Operon (Germany).
Construction of the RTHS and SICLOPPS library was conducted as previously described.2 […]
Electrocompetent RTHS-HIF 1 cells2 were transformed with 100 ng freshly prepared SICLOPPS CX5 library, prepared as previously detailed.3 The recovery mixture was plated on 6 square plates containing M9 minimal media supplemented with 50 µg/mL ampicillin, 25 µg/mL Spectinomycin, 50 µg/mL kanamycin, 35 µg/mL chloramphenicol, 100 µM IPTG, 6.5 µM L-arabinose and 7.5 mM 3-amino triazole and incubate at 37 °C for 48 h. To ensure sufficie transformation efficiency, 10 µL transformation mixture was subjected to 10-fold serial dilutions plated on LB-agar with 35 µg/m […]
Chloramphenicol. […] All cells were […]
then harvested by resuspending the colonies in a total of 50 mL LB medium and transferring to a centrifuge tube and centrifugation for 30 min at 4000 rpm and 4°C. The cell pellet was then subjected to maxi prep (GeneJET Plasmid Maxiprep kit Thermo Scientific) and the resulting plasmid library was used for the next round of biopanning and NGS. The second round of bio panning was […]

Assay [2] has as its target T1, PAS-B domain of HIF-1α (Homo sapiens, UniProt Q16665).
T1 construct: The HIF-1a PAS-B domain was expressed and purified as previously described; made in house
Description: Microscale thermophoresis (MST) binding to HIF-1α PAS-B domain. The conditions noted are these: MST, HIF-1α PAS-B, mean (n = 3) ± SEM; read-out: KD. The procedure:
We synthesized the top 20 cyclic peptides from the ranking approach. We also synthesized cyclo-CLLFVY as a control.[14] These compounds were assessed for binding to the PAS-B domain of HIF-1α by microscale thermophoresis (MST). […]
(Microscale thermophoresis detects binding through changes in fluorescence in a small temperature gradient.)

The test system of assay [3] is HIF-1. Description: HIF-1-dependent luciferase reporter assay in U2OS-HRE-Luc cells in hypoxia. It counts as cell-based, human. Conditions: 16 h in hypoxia; for reduction in luminescence: 40 μM. On the procedure: HIF Luciferase Reporter Assays
Assays were conducted in previously reported U2OS-HRE-Luciferase (U2OS-HRE-Luc) cells.2 Upon reaching 80-90% confluency, U2OS-HRE-Luc were plated (10 000 cells/well) in 96-well plates (Perkin-Elmer) and incubated in a cell incubator for 16 h. The cells were treated with cyclic peptide at […]
manufacturer’s protocol. […] The
(In general: Reporter assays use an easily measured gene product as a stand-in for the process of interest.)

The Kd is a measure of binding affinity in units of concentration. What is called IC50 is the point on the concentration scale where inhibition reaches its midpoint.

T1 sequence (Q16665 228-298 limits assumed): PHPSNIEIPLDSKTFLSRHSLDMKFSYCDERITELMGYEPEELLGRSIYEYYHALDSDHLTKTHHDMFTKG

Regarding `CC[C@H](C)[C@@H]1NC(=O)[C@H](CCCNC(=N)N)NC(=O)[C@H](CCSC)NC(=O)[C@H](C(C)C)NC(=O)[C@H](CS)NC(=O)[C@H](C)NC1=O` [CVMRIA, cyclo-CVMRIA] (cyclo(ACVMRI)), in assay [1], the “Enrichment after pan 2 [%]” value came to 0.6968%. In addition, in assay [2], the Kd was 168 ± 40 µM.

Take `CC(C)C[C@@H]1NC(=O)[C@H](CS)NC(=O)[C@H](Cc2ccccc2)NC(=O)[C@H](CC(C)C)NC(=O)[C@H](CC(C)C)NC(=O)[C@H](CSSC[C@H](N)C(=O)NCC(=O)N[C@@H](CCCNC(=N)N)C(=O)N[C@@H](CCCCN)C(=O)N[C@@H](CCCCN)C(=O)N[C@@H](CCCNC(=N)N)C(=O)N[C@@H](CCCNC(=N)N)C(=O)N[C@@H](CCC(N)=O)C(=O)N[C@@H](CCCNC(=N)N)C(=O)N[C@@H](CCCNC(=N)N)C(=O)N[C@@H](CCCNC(=N)N)C(=O)N2CCC[C@H]2C(=O)N2CCC[C@H]2C(=O)N[C@@H](CCC(N)=O)C(=O)O)NC1=O` [Tat-cyclo-CLLFCL]: in assay [3] (20 μM), the luciferase signal reduction was found to be 70%. Further, the reduction in luminescence in assay [3] is reported as 84%. Moreover, the half-maximal inhibitory concentration (IC50) in assay [3] (multiple doses, read-out: IC50 of reduction in the hypoxia-mediated luciferase signal) is 13 ± 4 µM.

With Tat-cyclo-CLLFVY [reference compound], in assay [3], the reduction in luminescence was found to be 28%.
